According to patent US7816400B2 (The University of Hong Kong, priority 2007, dated 2010):
Where two headings read alike, the source gives them in different places.

Key:
human atrial myocytes = experiment: Action potential in human atrial myocytes, perforated patch, current clamp; type: cell-based
Kv1.5 = biological target: T1, Kv1.5 (Homo sapiens, UniProt P22460); experiment: Kv1.5 channel block in stably expressing HEK 293 cells; type: cell-based
T1 construct: expressed in transfected cells
Experimental: The established HEK 293 cell lines stably expressing the hERG channel gene, Kv1.5 (Tang et al., 2007), or recombinant human cardiac KCNQ1/KCNE1 channel current (IKs) (Dong et al., 2006) was maintained separately in Dulbecco's modified eagle medium (Invitrogen) supplemented with 10% fetal bovine serum and containing 400 μg/ml G418 (for hERG or Kv1.5 channels) or 100 μg/ml hygromycin (for IKs).
The whole-cell patch-clamp technique was used for electrophysiological recording. Borosilicate glass electrodes (1.2-mm OD) were pulled with a Brown-Flamming puller (model P-97, Sutter Instrument Co, Novato, Calif., USA) and had tip resistances of 2-3 MΩ when filled with pipette solution. Membrane currents were recorded in voltage-clamp mode using an EPC-9 amplifier and Pulse software (HEKA, Lambrecht, Germany). A 3-M KCl-agar salt bridge was used as reference electrode. The tip potentials were compensated before the pipette touched the cell. After a giga-ohm seal was obtained, the cell membrane was ruptured by gentle suction to establish the whole-cell configuration. The cell membrane capacitance (pF) was directly measured using the lock-in module of the Pulse software, and used for normalizing the current in individual cells. The series resistance (Rs) was 3-5 MΩ and was compensated by 50-70% to minimize voltage errors. Perforated patch configuration was used for recording action potential in human atrial cells and IKs in HEK 293 cells as described previously (Li et al., 2002b; Dong et al., 2006). Current signals were low-pass filtered at 5 kHz and stored on the hard disk of an IBM compatible computer.
Other derivatives/analogs studied have no effect or a week inhibitory effect on Kv1.5.

hERG channels = hERG channels (Homo sapiens, UniProt Q12809); experiment: cell-based
isolated rabbit hearts = experiment: ECG (heart rate, QTc) in isolated hypokalemic rabbit hearts, Langendorff; settings: 10 μM, hypokalemic (3 mM K+) perfusion
anesthetized dogs [1] = experiment: Experimental vagotonic AF in anesthetized dogs; type: in vivo, dog
anesthetized dogs [2] = experiment: In vivo electrophysiology (atrial ERP, QTc) in anesthetized dogs; set-up: species or system dog; settings: 5 mg/kg intraduodenal
[3] = HEK293, HEK 293 cells stably expressing Kv1.5, Table 3, read-out: Kv1.5 (IC50)
[4] = HEK 293 cells stably expressing Kv1.5, Table 3, read-out: Kv1.5 (IC50)
[5] = BCL 200 ms, pre-treatment (baseline)
[6] = BCL 250 ms, pre-treatment (baseline)

Chain of hERG channels (Q12809 whole entry, the tested form may be a part): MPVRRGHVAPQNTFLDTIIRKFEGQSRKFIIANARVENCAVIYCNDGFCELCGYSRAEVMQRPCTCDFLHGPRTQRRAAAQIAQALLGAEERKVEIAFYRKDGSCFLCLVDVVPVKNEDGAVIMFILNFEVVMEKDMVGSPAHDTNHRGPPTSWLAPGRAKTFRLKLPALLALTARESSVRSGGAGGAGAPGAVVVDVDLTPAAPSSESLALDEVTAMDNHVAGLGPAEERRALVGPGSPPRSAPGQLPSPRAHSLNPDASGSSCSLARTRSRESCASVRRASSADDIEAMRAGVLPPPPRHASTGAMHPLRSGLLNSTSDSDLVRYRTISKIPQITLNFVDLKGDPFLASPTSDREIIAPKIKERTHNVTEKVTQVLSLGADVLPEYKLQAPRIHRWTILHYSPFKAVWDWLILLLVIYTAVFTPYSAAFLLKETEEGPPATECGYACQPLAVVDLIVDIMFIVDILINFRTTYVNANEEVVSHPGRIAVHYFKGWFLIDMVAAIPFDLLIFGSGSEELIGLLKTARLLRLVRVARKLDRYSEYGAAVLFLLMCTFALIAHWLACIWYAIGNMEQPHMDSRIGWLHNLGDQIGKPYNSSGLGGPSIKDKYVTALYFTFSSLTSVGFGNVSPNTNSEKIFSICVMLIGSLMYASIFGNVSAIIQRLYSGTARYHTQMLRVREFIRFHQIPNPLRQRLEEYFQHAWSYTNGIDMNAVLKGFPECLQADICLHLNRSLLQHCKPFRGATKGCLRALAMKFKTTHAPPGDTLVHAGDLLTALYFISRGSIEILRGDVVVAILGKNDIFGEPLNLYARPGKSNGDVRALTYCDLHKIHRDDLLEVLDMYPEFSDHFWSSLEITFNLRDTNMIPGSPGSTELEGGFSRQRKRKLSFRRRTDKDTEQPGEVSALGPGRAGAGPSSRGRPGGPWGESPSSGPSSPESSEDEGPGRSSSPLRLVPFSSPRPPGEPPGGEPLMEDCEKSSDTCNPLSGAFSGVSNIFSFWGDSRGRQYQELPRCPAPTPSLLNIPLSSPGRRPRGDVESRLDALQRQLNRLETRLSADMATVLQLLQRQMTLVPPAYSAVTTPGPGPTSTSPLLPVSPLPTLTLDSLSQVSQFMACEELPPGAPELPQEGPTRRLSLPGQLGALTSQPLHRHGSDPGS
T1 sequence (P22460 whole entry): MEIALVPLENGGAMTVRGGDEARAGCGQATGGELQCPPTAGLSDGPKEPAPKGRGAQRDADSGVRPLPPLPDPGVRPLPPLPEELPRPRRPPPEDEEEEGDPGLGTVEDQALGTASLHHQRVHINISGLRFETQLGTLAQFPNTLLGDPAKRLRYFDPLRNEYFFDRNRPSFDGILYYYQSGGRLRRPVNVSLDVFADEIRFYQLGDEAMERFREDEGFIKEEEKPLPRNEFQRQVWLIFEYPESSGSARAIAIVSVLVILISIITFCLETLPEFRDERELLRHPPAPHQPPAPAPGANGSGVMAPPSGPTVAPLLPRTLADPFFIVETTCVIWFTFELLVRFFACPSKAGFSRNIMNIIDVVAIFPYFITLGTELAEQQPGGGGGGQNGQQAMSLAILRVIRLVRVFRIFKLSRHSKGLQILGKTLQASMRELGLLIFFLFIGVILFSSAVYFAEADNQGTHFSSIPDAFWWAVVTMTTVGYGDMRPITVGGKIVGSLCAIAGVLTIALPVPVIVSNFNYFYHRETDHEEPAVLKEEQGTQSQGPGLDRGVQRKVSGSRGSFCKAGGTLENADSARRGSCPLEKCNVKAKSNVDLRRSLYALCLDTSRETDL

SMILES | effect on Kv1.5 compared with acacetin, in words (Kv1.5; comparative study, Table 3) | IC50 (Kv1.5; [4]) | IC50 (hERG channels) | also measured
Nc1ccncc1 [4-AP, reference compound] | – | – | – | rate dependence of APD50, APD75, APD90 prolongation, in words (human atrial myocytes; 50 μM 4-AP (data not shown)): reverse rate-dependent prolongation; action potential duration, in words (human atrial myocytes; 50 μM 4-AP, 2 Hz): prolonged APD50 more than APD90
COc1ccc(-c2cc(=O)c3c(O)cc(OC(C)=O)cc3o2)cc1 [A-2-11] | less effect | – | – | inhibition at 100 µM (Kv1.5; [3]): < 50%
COc1ccc(-c2cc(=O)c3c(O)cc(OC(=O)c4ccccc4)cc3o2)cc1 [A-2-12] | less effect | – | – | inhibition at 100 µM (Kv1.5; [3]): < 50%
COc1ccc(-c2cc(=O)c3c(O)cc(OC)cc3o2)cc1 [A-2-13] | less effect | – | – | inhibition at 100 µM (Kv1.5; HEK293, read-out: Kv1.5 (IC50, μM)): < 50%
CCOc1cc(O)c2c(=O)cc(-c3ccc(OC)cc3)oc2c1 [A-2-14] | less effect | – | – | inhibition at 100 µM (Kv1.5; [3]): < 50%
COc1ccc(-c2cc(=O)c3cc(Cl)ccc3o2)cc1 [A-5] | less effect | 23.5 µM | 13 µM | –
Oc1cc(O)c2c(c1)O[C@H](c1ccc(O)c(O)c1)[C@@H](O)C2 [A-9] | no effects | > 100 µM | > 100 µM | –
CC1OC(OCC2OC(Oc3c(-c4ccc(O)c(O)c4)oc4cc(O)cc(O)c4c3=O)C(O)C(O)C2O)C(O)C(O)C1O (stereo not shown) [A-11] | no effects | – | > 100 µM | IC50 (Kv1.5): > 100 µM
C=C[C@H]1C[N@@]2CC[C@H]1C[C@@H]2[C@@H](O)c1ccnc2ccc(OC)cc12 [Quinidine, quinidine] | – | – | – | QTc interval of ECG, in words (isolated rabbit hearts): prolonged QTc interval; heart rate, in words (isolated rabbit hearts): slowed heart rate; QTc interval of ECG, in words (isolated rabbit hearts; listed as quinidine): significantly increased
CC(C)NCC(O)c1ccc(NS(C)(=O)=O)cc1 (stereo not shown) [Sotalol, sotalol] | – | – | – | summarized anti-AF efficacy (anesthetized dogs [1]; 5 mg/kg intraduodenal, vehicle 0%): 60%; animals in which sustained AF was not observed (anesthetized dogs [1]; 5 mg/kg intraduodenal, vehicle: sustained AF in 100%): 40%; incidence of AF, in words (anesthetized dogs [1]; acacetin 2.5, 5, 10 mg/kg, sotalol 5 mg/kg, 1.5-2.5 h after intraduodenal administration): reduced the incidence of AF; left atrial ERP (ms), BCL 200 ms (anesthetized dogs [2]; BCL 200 ms, 2 h post-treatment): 105.1 ± 5.1 ms; left atrial ERP (ms), BCL 200 ms (anesthetized dogs [2]; [5]): 88.8 ± 3.7 ms; right atrial ERP (ms), BCL 200 ms (anesthetized dogs [2]; [5]): 88.7 ± 3.9 ms; left atrial ERP (ms), BCL 250 (anesthetized dogs [2]; [6]): 94.3 ± 3.1 ms; right atrial ERP (ms), BCL 250 (anesthetized dogs [2]; [6]): 96.3 ± 8.3 ms

The next lines start with results.

effect on Kv1.5 compared with acacetin, in words (Kv1.5; comparative study, Table 3) | IC50 (Kv1.5; [4]) | SMILES | IC50 (hERG channels) | also measured
– | 2.04 µM | COc1ccc(C(=O)Oc2cc(O)cc3oc(-c4ccc(OC)cc4)cc(=O)c23)cc1 [A-2] | 4.1 µM | ion channel selectivity for Kv1.5 and hERG channels compared with acacetin, in words (Kv1.5; comparative study, Table 3): less ion channel selectivity
less effect | 9 µM | COc1ccc(-c2cc(=O)c3ccccc3o2)cc1 [A-4] | – | –
less effect | 13.7 µM | COc1ccc(-c2cc(=O)c3cc(C)ccc3o2)cc1 [A-6] | – | –
no effects | > 100 µM | O=c1cc(-c2ccccc2)oc2cc(O)c(O)c(O)c12 [A-12] | > 100 µM | –
